Laboratory results taken from patent US20130178453A1, “Cannabinoid Agonists” (priority 2010, published 2013).
Several values for one entry are separate records, joined by “and”; a condition that tells them apart may be missing. Equal entries are not always repeated.

How the values were obtained:
hCB2 [1] = target: T1, hCB2 (Homo sapiens, UniProt P34972); assay: hCB2 cAMP agonist assay (HEK-293 cells); type: cell-based
Procedure, shortened: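 HEK-293 cells stably expressing hCB2, treated 30 min at 37° C with compound in HBSS/10 mM HEPES/0.1% BSA alongside forskolin (90 uM in the 3× solution, not final).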

hCB1 [2] = target: T2, hCB1 (Homo sapiens, UniProt P21554); assay: hCB1 radioligand binding assay ([3H]-CP 55,940 displacement); settings: hCB1 IC50 (CP displ, nM, HEK), HEK membranes
Procedure, shortened: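 Membranes from stable HEK-293 cells expressing recombinant hCB1 (2-10 μg protein) incubated 90 minutes at room temperature with 0.5 nM [3H]-CP 55,940 in 50 mM Tris-HCl pH 7.5, 5 mM MgCl2, 2.5 mM EDTA, 0.1% fatty acid free BSA. Filtration then scintillation counting; nonspecific binding with 1 μM unlabelled CP 55,940.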

hCB1 [3] = target: T2, hCB1; assay: hCB1 GTPγS agonist assay (HEK-293 membranes); type: biochemical
Source text: cDNA expression clones for human CB 1 (hCB1, Genbank Accession No. AY225225) and human CB2 (hCB2, Genbank Accession No. AY242132) expressed in vector pcDNA3.1+ were purchased from UMR cDNA Resource Center, Rolla, Mo. (Clone ID CNR01L000 for hCB1; CNR0200000 for hCB2).
Stable, HEK-293-derived cell lines that recombinantly express hCB1 or hCB2 were established. In brief, the clone hCB1 (CNR1L) or hCB2 (CNR2) was transfected into human embryonic kidney cells (HEK-293) using Lipofectamine 2000 (Gibco, Cat#11668-019) according to the manufacturer's protocol. Transfected clones were isolated by single colony purification and clones were screened for receptor expression using a whole cell, ^3H—CP 55,940 radioligand binding assay. HEK-293 stable cells were maintained in Dulbecco's modified Eagles medium (DMEM) containing 10% fetal bovine serum, 2 mM L-glutamine and 0.5 mg/mL G-418.
Membranes were isolated from transfected cells as follows. Monolayers of cultured cells were washed twice with phosphate-buffered saline (PBS). Cells were scraped into 20 mM HEPES, pH 7.4, 10 mM EDTA containing complete cocktail protease inhibitors (Roche, Catalog #11 697 498 001), and were homogenized by an electric-powered mechanical probe homogenizer (Omni GLH; probe G7-195S) for 40 seconds at 7000 rpm. Homogenates were centrifuged 10 minutes at 1000×g at 4° C. The supernatant was collected and was centrifuged for 1 hour at 40,000×g. The supernatant was then decanted and the resulting pellet was re-suspended in 20 mM HEPES, pH 7.4, 5 mM MgCl2, 1 mM EDTA, 10% sucrose with complete cocktail protease inhibitors. Protein concentration of membrane suspensions were measured by Bradford Protein Assay using bovine serum albumin as the standard (BioRad catalog #500-0006). Protein concentrations of membrane suspensions were adjusted with the final buffer in the range of 5 to 10 mg/mL and were stored at −80° C. until further use.
^35S GTPγS binding assays were performed by incubating recombinant cell membranes prepared above (5 μg) in the presence of scintillation proximity assay beads (SPA beads, Catalog #RPNQ0252 GE Healthcare, Buckinghamshire, England) in GTPγS binding buffer [50 mM HEPES (pH 7.4), 100 mM NaCl, 5 mM MgCl2, 0.001% saponin (Sigma catalog #S4521)] supplemented with 20 uM GDP (Sigma catalog #G7127) in the presence or absence of test compound. The reaction was carried out in 96-well microplates with 0.1 nM [^35S]GTPγS (specific activity=1250 Ci/mmol; Perkin Elmer catalog #NEG030X250UC) in a final volume of 100 μL. After a 90 min room temperature incubation, the reaction was analyzed using a scintillation counter (Perkin Elmer Microbeta instrument). Binding data were analyzed using GraphPad Prism.

hCB2 [4] = target: T1, hCB2; assay: hCB2 GTPγS agonist assay (HEK-293 membranes); type: biochemical
Procedure, shortened: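 Membranes from HEK-293 cells transfected with human CB2 (5 μg) incubated with SPA beads, 0.1 nM [35S]GTPγS and 20 uM GDP in 50 mM HEPES pH 7.4, 100 mM NaCl, 5 mM MgCl2, 0.001% saponin. Incubation 90 min at room temperature. Agonist-stimulated binding read by scintillation counting.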

hCB1 [5] = target: T2, hCB1; assay: hCB1 cAMP agonist assay (HEK-293 cells); type: cell-based
hCB2 [6] = target: T1, hCB2; assay: hCB2 radioligand binding assay ([3H]-CP 55,940 displacement); settings: hCB2 IC50 (CP displ, nM, HEK), HEK membranes
Procedure, shortened: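 Membranes from cells transfected with human CB2 cDNA (pcDNA3.1+), kept in 20 mM HEPES pH 7.4, MgCl2, EDTA, sucrose with protease inhibitors.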

[7] = GTPγS agonist, HEK membranes, read-out: hCB1 EC50 (GTPyS ag, nM, HEK)
[8] = cAMP agonist, HEK, 96-well, read-out: hCB1 EC50 (cAMP ag, nM, HEK (96-well))

T1 sequence (P34972 whole entry): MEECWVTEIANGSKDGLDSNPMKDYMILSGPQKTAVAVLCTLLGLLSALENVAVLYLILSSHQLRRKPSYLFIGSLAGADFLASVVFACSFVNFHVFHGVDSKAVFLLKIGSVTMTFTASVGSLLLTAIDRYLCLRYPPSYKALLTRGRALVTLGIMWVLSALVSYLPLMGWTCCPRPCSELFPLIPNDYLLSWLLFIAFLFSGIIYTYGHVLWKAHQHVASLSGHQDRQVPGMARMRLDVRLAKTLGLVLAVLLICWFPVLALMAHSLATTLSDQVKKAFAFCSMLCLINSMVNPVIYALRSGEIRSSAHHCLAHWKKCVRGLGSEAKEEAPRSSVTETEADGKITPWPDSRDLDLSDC
T2 sequence (P21554 whole entry): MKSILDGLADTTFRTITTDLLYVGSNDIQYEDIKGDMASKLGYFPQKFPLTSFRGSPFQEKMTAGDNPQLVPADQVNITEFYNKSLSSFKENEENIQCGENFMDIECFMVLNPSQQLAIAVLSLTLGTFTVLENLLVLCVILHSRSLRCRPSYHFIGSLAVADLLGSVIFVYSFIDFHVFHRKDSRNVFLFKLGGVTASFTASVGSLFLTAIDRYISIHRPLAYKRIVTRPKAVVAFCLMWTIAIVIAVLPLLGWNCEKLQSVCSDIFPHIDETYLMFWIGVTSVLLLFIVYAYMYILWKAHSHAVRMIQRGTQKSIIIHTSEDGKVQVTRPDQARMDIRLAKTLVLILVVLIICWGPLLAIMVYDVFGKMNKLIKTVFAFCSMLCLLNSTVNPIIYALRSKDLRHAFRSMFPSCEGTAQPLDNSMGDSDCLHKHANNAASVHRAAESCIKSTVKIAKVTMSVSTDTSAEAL

Structure (SMILES)	EC50 (hCB2 [1])	IC50 (hCB1 [2])	EC50 (hCB1 [3])	EC50 (hCB2 [4])	EC50 (hCB1 [5])	IC50 (hCB2 [6])	EC50 (hCB1 [3]; [7])	EC50 (hCB1 [5]; [8])	EC50 (hCB1 [5]; cAMP agonist, HEK, 24-well, read-out: hCB1 EC50 (cAMP ag, nM HEK (24-well)))
CCn1c(C(=O)c2cn(CC3CCOCC3)c3ccccc23)cc2ccsc21 [Compound I-16]	< 0.1 µM	< 100 nM	< 100 nM	< 0.1 µM	< 100 nM	< 100 nM	–	–	–
CCCn1cc(C(=O)c2cc3ccsc3n2CC)c2ccccc21 [Compound I-70]	< 0.1 µM	100 to 1000 nM	100 to 1000 nM	< 0.1 µM	100 to 1000 nM	< 100 nM	–	–	–
CCCn1cc(C(=O)c2cc3ccsc3n2CCC)c2cccnc21 [Compound I-45]	< 0.1 µM	< 100 nM and 100 to 1000 nM	100 to 1000 nM	< 0.1 µM	100 to 1000 nM	< 100 nM	–	–	–
CCn1c(C(=O)c2cn(CCCNS(C)(=O)=O)c3ccccc23)cc2ccsc21 [Compound I-28]	< 0.1 µM	100 to 1000 nM	–	< 0.1 µM	–	< 100 nM	1000 to 10000 nM	100 to 1000 nM	–
CCCn1c(C(=O)c2cn(CC)c3ccccc23)cc2ccsc21 [Compound I-42]	< 0.1 µM	< 100 nM	–	< 0.1 µM	–	< 100 nM	100 to 1000 nM	100 to 1000 nM	–
CCCn1c(C(=O)c2c(C)n(CCC)c3sccc23)cc2ccsc21 [Compound I-83]	< 0.1 µM	–	–	–	–	–	100 to 1000 nM	< 100 nM	< 100 nM
CCn1c(C(=O)c2c3c(n(CC4CCOCC4)c2C)CCCC3)cc2ccsc21 [Compound I-86]	< 0.1 µM	< 100 nM	–	< 0.1 µM	–	< 100 nM	100 to 1000 nM	100 to 1000 nM	–
CCCn1c(C(=O)c2c(C)n(CCN3CCOCC3)c3sccc23)cc2ccccc21 [Compound I-11]	< 0.1 µM	< 100 nM	–	< 0.1 µM	–	< 100 nM	100 to 1000 nM	–	–
CCCn1c(C(=O)c2c(C)n(CCC3CCOCC3)c3ccccc23)cc2ccsc21 [Compound I-57]	< 0.1 µM	100 to 1000 nM	100 to 1000 nM	< 0.1 µM	100 to 1000 nM	< 100 nM	–	–	–
CCCCCn1c(C)c(C(=O)c2cc3ccsc3n2CCC)c2ccccc21 [Compound I-60]	< 0.1 µM	< 100 nM	100 to 1000 nM	< 0.1 µM	< 100 nM	< 100 nM	–	–	–
CCCn1cc(C(=O)c2cc3ccsc3n2CCC)c2ccccc21 [Compound I-62]	< 0.1 µM	< 100 nM	100 to 1000 nM	< 0.1 µM	< 100 nM	< 100 nM	–	–	–
CCCn1c(C(=O)c2cn(CC3CCOCC3)c3ccccc23)cc2ccsc21 [Compound I-41]	< 0.1 µM	< 100 nM	< 100 nM	< 0.1 µM	< 100 nM	< 100 nM	–	–	–
CCCn1c(C(=O)c2c(C)[nH]c3sccc23)cc2ccsc21 [Compound I-84]	–	–	–	–	–	–	> 10000 nM	< 100 nM	–
CCCn1cc(C(=O)c2cc3ccsc3n2CC)c2cccnc21 [Compound I-34]	< 0.1 µM	1000 to 10000 nM	100 to 1000 nM	< 0.1 µM	1000 to 10000 nM	< 100 nM	–	–	–
CCCn1c(C(=O)c2c(C)n(CC3CCOCC3)c3ccccc23)cc2ccsc21 [Compound I-66]	< 0.1 µM	100 to 1000 nM	100 to 1000 nM	< 0.1 µM	< 100 nM	< 100 nM	–	–	–
